{"source": "patent US20220183282A1", "about": "“Fatty Acid Derivatives For Improving The Effect Of Agrochemical Actives” (priority 2019, published 2022)", "key": {"apple leaf cuticles [1]": {"system": "apple leaf cuticles", "conditions": "for Mean penetration for Benzyladenine after time: Benzyladenine 0.1 g/L in spray liquid", "excerpt": "(§1) Surfactants can affect the absorption of (active) ingredients through membranes such as skin, films or the plant cuticle. As a “finite-dose” application, it is known for the single administration or application of a solution, cream, gel etc. to a membrane that the absorption of active ingredient can be influenced by some additives such as surfactants even after wetting.\n(§2) The principle of the method has been published and described in detail e.g. in WO-A-2005/194844 or WO2017211572 A1). The leaf cuticles were enzymatically isolated in the manner described in the literature from apple leaves of orchard trees in a commercial stone fruit growing facility near Frankfurt am Main in 2017. The stomata-free cuticles were first dried under air and then installed into stainless steel diffusion cells. After application to the original upper side of the leaf and evaporation of the test liquid, i.e. of the spray liquids of the active ingredients with or without the inventive substances or comparative compositions, the diffusion cells were transferred into thermostated blocks and charged with aqueous liquid. The water used to make up the aqueous test liquids was local tap water (of known composition). At regular intervals, aliquot samples were taken and the proportion of active ingredient penetrated was determined by HPLC or alternatively by radio-chemical method where radio-labelled active ingredient was used as tracer to determine the concentration. During the experiment, the temperature in the system (block, diffusion cells, liquids, etc.) and the air humidity above the spray deposit on the cuticle were controlled. In the experiment, relative air humidity was constant throughout at 56% relative air humidity (air over supersaturated calcium nitrate) at a constant 10° C. or 25° C. The analytical determination by means of HPLC (1290 Infinity, Agilent) was effected thereafter with a Kinetex column 30×2, 1 mm, 2.6μ C18 100 A (Phenomenex), taking a 20 μL aliquot as injection volume at the specified times. In each case, the geometric mean values of the penetration for intact membranes at the mean measurement times are given."}, "apple leaf cuticles [2]": {"system": "apple leaf cuticles", "assay": "Penetration of Mesosulfuron-methyl through isolated apple leaf cuticles in the presence of test substances", "format": "in vitro ADME", "conditions": "for Mean penetration for Mesosulfuron-methyl after time: Mesosulfuron-methyl 0.1 g/L in spray liquid, 10° C./61% rel. air humidity", "excerpt": "as §1\nas §2, with “In the experiment, relative air humidity was constant throughout at 56% relative air humidity (air over supersaturated calcium nitrate) at a constant 10° C. or 25° C.” left out"}, "apple leaf cuticles [3]": {"system": "apple leaf cuticles", "assay": "Penetration of Mesotrione through isolated apple leaf cuticles in the presence of test substances", "excerpt": "as §1\nas §2, with “In each case, the geometric mean values of the penetration for intact membranes at the mean measurement times are given.” left out"}, "apple leaf cuticles [4]": {"system": "apple leaf cuticles", "assay": "Penetration of MCPA through isolated apple leaf cuticles in the presence of test substances", "conditions": "for Mean penetration for MCPA after time: MCPA 1.5 g/L in spray liquid, 25° C./56% rel. air humidity", "excerpt": "as §1, §2"}, "[5]": {"assay": "Dynamic surface tension, bubble pressure method (BP2100 tensiometer, Krüss)", "format": "physicochemical", "description": "Dynamic surface tension was determined via the bubble pressure method (BP2100 tensiometer, Krüss). Given a timespan of relevance for the spray application of agrochemicals in aqueous dilution (called the surface age in the bubble pressure method) of 200 milliseconds (ms), the value for dynamic surface tension in [mN/m] correlates with the adhesion on plants that are difficult to wet, such as barley (cereal). A value of 50 mN/m (at 20-21° C.) with respect to water (72.8 mN/m) results in an improvement in the adhesion from “zero adhesion” (0%) to about 50% (Baur P., Pontzen R.; 2007; Basic features of plant surface wettability and deposit formation and the impact of adjuvant; in R. E. Gaskin ed. Proceedings of the 8th International Symposium on Adjuvants for Agrochemicals; Publisher: International Society for Agrochemical Adjuvants (ISAA), Columbus, Ohio, USA)."}, "apple leaf cuticles [6]": {"system": "apple leaf cuticles", "assay": "Penetration of Flufenacet through isolated apple leaf cuticles in the presence of test substances", "conditions": "for Mean penetration for Flufenacet after time: Flufenacet 0.75 g/L in spray liquid, 10° C./61% rel. air humidity", "excerpt": "as §1\nas §2, with “In the experiment, relative air humidity was constant throughout at 56% relative air humidity (air over supersaturated calcium nitrate) at a constant 10° C. or 25° C.” left out"}, "apple leaf cuticles [7]": {"system": "apple leaf cuticles", "assay": "Penetration of Imidacloprid through isolated apple leaf cuticles in the presence of test substances", "conditions": "for Mean penetration for Imidacloprid after time: Imidacloprid 0.5 g/L in spray liquid", "excerpt": "as §1, §2"}, "apple leaf cuticles [8]": {"system": "apple leaf cuticles", "assay": "Penetration of Milbemectin through isolated apple leaf cuticles in the presence of test substances", "format": "in vitro ADME", "conditions": "for Mean penetration for Milbemectin after time: Milbemectin 0.03 g/L in spray liquid", "excerpt": "as §1, §2"}}, "note": "Like-named read-outs stand apart in the source and are kept apart here.", "data": [{"smiles": "CCCCCCCCC(=O)OCCOCCOCCOCCOCCOCCOC", "note": "[A1, Pelargonic acid 6 EO ester methyl ether]", "values": [{"measurement": "Mean penetration for Benzyladenine after time", "setting": "apple leaf cuticles [1]; test substance 0.3 g/L, 1 day", "result": 4.2, "unit": "%"}, {"measurement": "Mean penetration for Benzyladenine after time", "setting": "apple leaf cuticles [1]; test substance 0.3 g/L, 2 days", "result": 4.5, "unit": "%"}, {"measurement": "Mean penetration for Benzyladenine after time", "setting": "apple leaf cuticles [1]; test substance 0.8 g/L, 1 day", "result": 9.7, "unit": "%"}, {"measurement": "Mean penetration for Benzyladenine after time", "setting": "apple leaf cuticles [1]; test substance 0.8 g/L, 2 days", "result": 10.6, "unit": "%"}, {"measurement": "Mean penetration for Benzyladenine after time", "setting": "apple leaf cuticles [1]; test substance 1.5 g/L, 1 day", "result": 17.2, "unit": "%"}, {"measurement": "Mean penetration for Benzyladenine after time", "setting": "apple leaf cuticles [1]; test substance 1.5 g/L, 2 days", "result": 17.9, "unit": "%"}, {"measurement": "Mean penetration for Benzyladenine after time", "setting": "apple leaf cuticles [1]; test substance 3.0 g/L, 1 day", "result": 17.9, "unit": "%"}, {"measurement": "Mean penetration for Benzyladenine after time", "setting": "apple leaf cuticles [1]; test substance 3.0 g/L, 2 days", "result": 18.6, "unit": "%"}, {"measurement": "uptake of the agrochemical active (Benzyladenine), in words", "setting": "apple leaf cuticles [1]; summary of Table 10", "result": "strongly increases the uptake"}, {"measurement": "Mean penetration for Mesosulfuron-methyl after time", "setting": "apple leaf cuticles [2]; test substance 1.0 g/L, 1 day", "result": 1.9, "unit": "%"}, {"measurement": "Mean penetration for Mesosulfuron-methyl after time", "setting": "apple leaf cuticles [2]; test substance 1.0 g/L, 2 days", "result": 3.6, "unit": "%"}, {"measurement": "Mean penetration for Mesosulfuron-methyl after time", "setting": "apple leaf cuticles [2]; test substance 3.0 g/L, 1 day", "result": 4.2, "unit": "%"}, {"measurement": "Mean penetration for Mesosulfuron-methyl after time", "setting": "apple leaf cuticles [2]; test substance 3.0 g/L, 2 days", "result": 5.2, "unit": "%"}, {"measurement": "Mean penetration for Mesosulfuron-methyl after time", "setting": "apple leaf cuticles [2]; test substance 10 g/L, 1 day", "result": 9.2, "unit": "%"}, {"measurement": "Mean penetration for Mesosulfuron-methyl after time", "setting": "apple leaf cuticles [2]; test substance 10 g/L, 2 days", "result": 10.9, "unit": "%"}, {"measurement": "uptake of the active ingredient (Mesosulfuron-methyl), in words", "setting": "apple leaf cuticles [2]; summary of Table 5", "result": "strongly increases the uptake"}, {"measurement": "uptake of the active ingredient (Mesotrione), in words", "setting": "apple leaf cuticles [3]", "result": "increases the uptake"}, {"measurement": "Mean penetration for MCPA after time", "setting": "apple leaf cuticles [4]; test substance 0.3 g/L, 0.5 day", "result": 34.2, "unit": "%"}, {"measurement": "Mean penetration for MCPA after time", "setting": "apple leaf cuticles [4]; test substance 0.3 g/L, 1 day", "result": 45.5, "unit": "%"}, {"measurement": "Mean penetration for MCPA after time", "setting": "apple leaf cuticles [4]; test substance 1.0 g/L, 0.5 day", "result": 46.9, "unit": "%"}, {"measurement": "Mean penetration for MCPA after time", "setting": "apple leaf cuticles [4]; test substance 1.0 g/L, 1 day", "result": 53.9, "unit": "%"}, {"measurement": "uptake of the active ingredient (MCPA), in words", "setting": "apple leaf cuticles [4]; summary of Table 3", "result": "strongly increases the uptake"}, {"measurement": "Dynamic Surface tension", "setting": "[5]; 0.3 g/L, 20 ms", "result": 61.2, "unit": "mN/m"}, {"measurement": "Dynamic Surface tension", "setting": "[5]; 0.3 g/L, 50 ms", "result": 57.3, "unit": "mN/m"}, {"measurement": "Dynamic Surface tension", "setting": "[5]; 0.3 g/L, 100 ms", "result": 54.4, "unit": "mN/m"}, {"measurement": "Dynamic Surface tension", "setting": "[5]; 0.3 g/L, 200 ms", "result": 51.5, "unit": "mN/m"}, {"measurement": "Dynamic Surface tension", "setting": "[5]; 1 g/L, 20 ms", "result": 47.6, "unit": "mN/m"}, {"measurement": "Dynamic Surface tension", "setting": "[5]; 1 g/L, 50 ms", "result": 44.5, "unit": "mN/m"}, {"measurement": "Dynamic Surface tension", "setting": "[5]; 1 g/L, 100 ms", "result": 42.1, "unit": "mN/m"}, {"measurement": "Dynamic Surface tension", "setting": "[5]; 1 g/L, 200 ms", "result": 39.8, "unit": "mN/m"}, {"measurement": "Dynamic Surface tension", "setting": "[5]; 3 g/L, 20 ms", "result": 33.7, "unit": "mN/m"}, {"measurement": "Dynamic Surface tension", "setting": "[5]; 3 g/L, 50 ms", "result": 32.0, "unit": "mN/m"}, {"measurement": "Dynamic Surface tension", "setting": "[5]; 3 g/L, 100 ms", "result": 30.8, "unit": "mN/m"}, {"measurement": "Dynamic Surface tension", "setting": "[5]; 3 g/L, 200 ms", "result": 29.5, "unit": "mN/m"}, {"measurement": "Dynamic Surface tension", "setting": "[5]; 10 g/L, 20 ms", "result": 30.2, "unit": "mN/m"}, {"measurement": "Dynamic Surface tension", "setting": "[5]; 10 g/L, 50 ms", "result": 29.3, "unit": "mN/m"}, {"measurement": "Dynamic Surface tension", "setting": "[5]; 10 g/L, 100 ms", "result": 28.6, "unit": "mN/m"}, {"measurement": "Dynamic Surface tension", "setting": "[5]; 10 g/L, 200 ms", "result": 27.9, "unit": "mN/m"}, {"measurement": "Mean penetration for Flufenacet after time", "setting": "apple leaf cuticles [6]; test substance 1.0 g/L, 1 day", "result": 10.7, "unit": "%"}, {"measurement": "Mean penetration for Flufenacet after time", "setting": "apple leaf cuticles [6]; test substance 1.0 g/L, 2 days", "result": 16.9, "unit": "%"}, {"measurement": "Mean penetration for Flufenacet after time", "setting": "apple leaf cuticles [6]; test substance 10 g/L, 1 day", "result": 18.2, "unit": "%"}, {"measurement": "Mean penetration for Flufenacet after time", "setting": "apple leaf cuticles [6]; test substance 10 g/L, 2 days", "result": 28.0, "unit": "%"}, {"measurement": "uptake of the active ingredient (Flufenacet), in words", "setting": "apple leaf cuticles [6]; summary of Table 4, compared to the commercial formulation", "result": "strongly increases the uptake"}, {"measurement": "Mean penetration for Imidacloprid after time", "setting": "apple leaf cuticles [7]; test substance 0.3 g/L, 1 day", "result": 2.8, "unit": "%"}, {"measurement": "Mean penetration for Imidacloprid after time", "setting": "apple leaf cuticles [7]; test substance 0.3 g/L, 4 days", "result": 3.8, "unit": "%"}, {"measurement": "Mean penetration for Imidacloprid after time", "setting": "apple leaf cuticles [7]; test substance 1.0 g/L, 1 day", "result": 31.7, "unit": "%"}, {"measurement": "Mean penetration for Imidacloprid after time", "setting": "apple leaf cuticles [7]; test substance 1.0 g/L, 4 days", "result": 38.2, "unit": "%"}, {"measurement": "uptake of the agrochemical active (Imidacloprid), in words", "setting": "apple leaf cuticles [7]; summary of Table 8", "result": "strongly increases the uptake"}, {"measurement": "Mean penetration for Milbemectin after time", "setting": "apple leaf cuticles [8]; test substance 1.5 g/L, 1 day", "result": 4.3, "unit": "%"}, {"measurement": "Mean penetration for Milbemectin after time", "setting": "apple leaf cuticles [8]; test substance 1.5 g/L, 2 days", "result": 4.2, "unit": "%"}, {"measurement": "Mean penetration for Milbemectin after time", "setting": "apple leaf cuticles [8]; test substance 3.0 g/L, 1 day", "result": 4.7, "unit": "%"}, {"measurement": "Mean penetration for Milbemectin after time", "setting": "apple leaf cuticles [8]; test substance 3.0 g/L, 2 days", "result": 5.4, "unit": "%"}, {"measurement": "uptake of the agrochemical active (Milbemectin), in words", "setting": "apple leaf cuticles [8]; summary of Table 9, compared to the commercial formulation", "result": "strongly increases the uptake"}]}]}
